These results are taken from EP0558245A1, “Heterobicyclic compounds as antagogists of alpha-1 adrenergic and SHT1A receptors” (priority 1992, dated 1993).

Like-named read-outs stand apart in the source and are kept apart here.

Usually IC50 stands for the concentration at which inhibition is half-maximal.

For one data set, the target named is α₁ receptors. Nature of the data set: [3H]prazosin binding (α1 receptors), rat cerebral cortex membranes. The settings on record: rat cerebral cortex crude membranes, [3H]prazosin 0.35 nM, 25°C 30 min; read-out: Receptor Binding IC50 (nM) α1.
The next data set concerns the target T1, 5HT1A receptors (Rattus norvegicus, UniProt P19327).
T1 construct: Rat hippocampi were homogenized; from tissue; host or cells: rat hippocampus membranes
T1 sequence (P19327 1-422): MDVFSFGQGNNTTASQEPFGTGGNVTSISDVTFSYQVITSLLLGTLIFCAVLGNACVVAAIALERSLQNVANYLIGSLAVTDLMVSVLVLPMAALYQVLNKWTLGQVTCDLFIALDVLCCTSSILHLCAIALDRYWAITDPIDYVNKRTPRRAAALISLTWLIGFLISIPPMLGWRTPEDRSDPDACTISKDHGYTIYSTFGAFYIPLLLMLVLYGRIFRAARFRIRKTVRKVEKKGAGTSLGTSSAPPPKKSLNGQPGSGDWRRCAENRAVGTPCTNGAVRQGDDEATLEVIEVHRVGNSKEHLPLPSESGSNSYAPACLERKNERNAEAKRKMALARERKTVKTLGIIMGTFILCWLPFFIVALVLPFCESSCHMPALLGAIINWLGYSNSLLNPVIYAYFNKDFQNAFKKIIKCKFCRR
Nature of the data set: [3H]8-OH-DPAT binding (5HT1A receptors), rat hippocampus membranes. The following applies: rat hippocampus crude membranes, [3H]8-OH-DPAT 1.0 nM, 25°C 30 min; read-out: Receptor Binding IC50 (nM) 5-HT1a.

Data set [1] in a line: Acute toxicity in mice after intraperitoneal and oral administration. The following applies: mouse, in vivo, female albino Swiss mice, mortality recorded 7 days after administration. On the procedure: Male Sprague Dawley rats [Crl: CD' BR] of 200-300 g b.w., female Albino Swiss mice [Crl: CD-1 (ICR) BR] 20-30 g b.w., and male Beagle dogs (10-12 kg b.w.) were obtained from Charles River, Italy and Nossan (Correzzana, Milan, Italy), respectively. Animals were housed with free access to food and water and maintained on forced light-dark cycle at 22-24°C until the day of experiments.
The acute toxicity of synthesized compounds was evaluated in female albino Swiss mice after intraperitoneal and oral administration. Four logarithmic scaled doses of the compounds were dissolved or suspended in 0.5% Methocel and administered in a volume of 10 ml/kg to groups of 4 mice/dose. Mortality was recorded 7 days after the administration. Data analysis: the LD₅₀ values and their fiducial limits were calculated according to the method of Weil (Biometrics, 8, 249, 1952).

Protocol for 5HT1A receptors: Rat hippocampi were homogenized in 50 volumes of original wet weight of ice-cold 50 mM Tris-HCl buffer pH 7.4. The homogenates were centrifuged at 48,000 x g for 10 minutes, and the pellets were resuspended in the same volume of ice-cold buffer, incubated for 10 minutes at 37°C, centrifuged and resuspended two more times. The final pellets obtained were resuspended in the same volume of buffer and incubated according to the conditions reported in the table below.
The incubations were terminated after the appropriate time (see table) by rapid filtration through Whatman GF/B filters using a Brandel cell harvester. The filters were washed twice with 15 ml of ice-cold buffer (see table). The radioactivity retained on the filters was determined by liquid scintillation counting. Nonspecific binding (which amounted generally to 10-30%) was evaluated by adding high concentrations of the specific displacers (see table). All the compounds were initially tested at 1x10⁻⁶ M concentration, and in the presence of significant displacing activity, a complete competition curve was generated (down to a concentration of 10⁻¹¹ M). All the samples were run in triplicate.
The competition curves were always analyzed (to evaluate the IC₅₀ values) by non linear curve fitting of the logistic equation according to the method reported by De Lean et al. (Am. J. Physiol., 235, E97, 1978), utilizing the ALLFIT program [publically available from the National Institutes of Health (N.I.H.) Bethesda, Maryland, USA] written for the IBM PC.

Turning to `COc1ccccc1N1CCN(CCCN(C(C)=O)C(=O)c2cccc3c(=O)c(C)c(-c4ccccc4)oc23)CC1` [Example 81, 8-{N-acetyl-3-[4-(2-methoxyphenyl)-1-piperazinyl]-propylcarbamoyl}-3-methyl-4-oxo-2-phenyl-4H-1-benzopyran], the concentration for half-maximal inhibition (IC50) came to 13 nM on α₁ receptors and 81 nM on 5HT1A receptors. With `COc1ccccc1N1CCN(CCNC(=O)Cc2cccc3c(=O)cc(-c4ccccc4)oc23)CC1` [Example 80, 8-{2-[4-(2-methoxyphenyl)-1-piperazinyl]-ethylcarbamoylmethyl}-4-oxo-2-phenyl-4H-1-benzopyran methanesulphonate hydrate], the IC50 came to 28 nM on α₁ receptors and 162 nM at 5HT1A receptors. Taken in the same sequence, the figures for `COc1ccccc1N1CCN(CCCNC(=O)c2cccc3c(=O)c(C)c(C)oc23)CC1` [Example 102, 8-{3-[4-(2-methoxyphenyl)-1-piperazinyl]-propylcarbamoyl}-2,3-dimethyl-4-oxo-4H-1-benzopyran] were 56 nM and 18 nM.

`COc1ccccc1OCCCNCCCNC(=O)c1cccc2c(=O)c(C)c(-c3ccccc3)oc12` [Example 74, 8-{3-[3-(2-methoxyphenoxy)-propylamino]-propylcarbamoyl}-3-methyl-4-oxo-2-phenyl-4H-1-benzopyran methanesulphonate hemihydrate]: the results for the IC50 at α₁ receptors and at 5HT1A receptors were 178 nM and 482 nM, respectively.

For `COc1ccccc1N1CCN(CCCNC(=O)c2cccc3c(=O)ccoc23)CC1` [Example 88, 8-{3-[4-(2-methoxyphenyl)-1-piperazinyl]-propylcarbamoyl}-4-oxo-4H-1-benzopyran methanesulphonate . 1.25 H₂O], the IC50 on α₁ receptors turned out to be 216 nM; at 5HT1A receptors, 11 nM. As to `COc1ccccc1N1CCN(CCCC(=O)c2cccc3c(=O)c(C)c(-c4ccccc4)oc23)CC1.CS(=O)(=O)O`, the LD50 at 168 h in data set [1] (ip, intraperitoneal, read-out: Acute Toxicity in Mice LD50 (mg/kg) i.p.) is above 500 mg/kg; in data set [1] (oral, read-out: Acute Toxicity in Mice LD50 (mg/kg) p.o.) it was above 2000 mg/kg.

Take `CSc1ccccc1OCCNCCCNC(=O)c1cccc2c(=O)c(C)c(-c3ccccc3)oc12` [Example 75, 8-{3-[2-(2-methylthiophenoxy)-ethylamino]-propylcarbamoyl}-3-methyl-4-oxo-2-phenyl-4H-1-benzopyran methanesulphonate]: the IC50 is 147 nM at α₁ receptors and 15 nM at 5HT1A receptors.

With `COc1ccccc1N1CCN(CCCNC(=S)c2cccc3c(=O)c(C)c(-c4ccccc4)oc23)CC1` [Example 83, 8-{3-[4-(2-methoxyphenyl)-1-piperazinyl]-propylthiocarbamoyl}-3-methyl-4-oxo-2-phenyl-4H-1-benzopyran methanesulphonate], the IC50 on α₁ receptors turned out to be 30 nM; on 5HT1A receptors, 5 nM. Taken in the same sequence, the figures for `COc1ccccc1N1CCN(CCCNC(=O)c2cccc3c(=O)cc(-c4ccccc4)sc23)CC1` [Example 107, 8-{3-[4-(2-methoxyphenyl)-1-piperazinyl]-propylcarbamoyl}-4-oxo-2-phenyl-4H-1-benzothiopyran] were 37 nM and 16 nM. Taken in the same sequence, the figures for `COc1ccccc1N1CCN(CCCN(OC2CCCCO2)C(=O)c2cccc3c(=O)c(C)c(-c4ccccc4)oc23)CC1` (centres unmarked) [Example 68, 8-{N-(2-tetrahydropyranyloxy)-3-[4-(2-methoxyphenyl)-1-piperazinyl]-propylcarbamoyl}-3-methyl-4-oxo-2-phenyl-4H-1-benzopyran methanesulphonate hemihydrate] were 29 nM and 13 nM. For `COc1ccccc1N1CCN(CCCNC(=O)c2cccc3c(=O)cc(-c4ccccc4)oc23)CC1` [Example 86, 8-{3-[4-(2-methoxyphenyl)-1-piperazinyl]-propylcarbamoyl}-4-oxo-2-phenyl-4H-1-benzopyran methanesulphonate . ¼ H₂O], in that order: 48 nM and 20 nM. `COc1ccccc1N1CCN(CCCNC(=O)c2cccc3c(=O)c(C)c(C4CCCCC4)oc23)CC1` [Example 104, 8-{3-[4-(2-methoxyphenyl)-1-piperazinyl]-propylcarbamoyl}-2-cyclohexyl-3-methyl-4-oxo-4H-1-benzopyran]: the half-maximal inhibitory concentration (IC50) at α₁ receptors came to 9 nM; at 5HT1A receptors, 15 nM. Consider `Cc1c(-c2ccccc2)oc2c(C(=O)NCCCNCC3CCc4ccccc4C3=O)cccc2c1=O` (centres unmarked) [Example 65, 8-{3-[(3,4-dihydro-1-oxo-2H-naphthyl)-methylamino]-propylcarbamoyl}-3-methyl-4-oxo-2-phenyl-4H-1-benzopyran methanesulphonate], for which the half-maximal inhibitory concentration (IC50) on 5HT1A receptors was 26 nM. Take `COc1ccccc1N1CCN(CCCNC(=O)c2cc([N+](=O)[O-])cc3c(=O)c(C)c(-c4ccccc4)oc23)CC1` [Example 93, 8-{3-[4-(2-methoxyphenyl)-1-piperazinyl]-propylcarbamoyl}-3-methyl-6-nitro-4-oxo-2-phenyl-4H-1-benzopyran]: the IC50 is 47 nM at α₁ receptors and 38 nM at 5HT1A receptors. For `COc1ccccc1N1CCN(CCCN(O)C(=O)c2cccc3c(=O)c(C)c(-c4ccccc4)oc23)CC1` [Example 71, 8-{N-hydroxy-3-[4-(2-methoxyphenyl)-1-piperazinyl]-propylcarbamoyl}-3-methyl-4-oxo-2-phenyl-4H-1-benzopyran methanesulphonate 0.25 H20], in that order: 108 nM and 69 nM. Taken in the same sequence, the figures for `COc1ccccc1N1CC[N+]([O-])(CCCOc2cccc3c(=O)c(C)c(-c4ccccc4)oc23)CC1` [Example 43, 8-{3-[4-(2-methoxyphenyl)-1-oxo-1-piperazinyl]-propoxy}-3-methyl-4-oxo-2-phenyl-4H-1-benzopyran 1.75-hydrate] were 166 nM and above 1000 nM.

Regarding `COc1ccccc1N1CCN(CCCNC(=O)c2c(OC)ccc3c(=O)c(C)c(-c4ccccc4)oc23)CC1` [Example 98, 8-{3-[4-(2-methoxyphenyl)-1-piperazinyl]-propylcarbamoyl}-7-methoxy-3-methyl-4-oxo-2-phenyl-4H-1-benzopyran], the IC50 is 103 nM at α₁ receptors and 12 nM at 5HT1A receptors. Consider `COc1ccccc1N1CCN(CCCNC(=O)c2cc(N)cc3c(=O)c(C)c(-c4ccccc4)oc23)CC1` [Example 94, 8-{3-[4-(2-methoxyphenyl)-1-piperazinyl]-propylcarbamoyl}-6-amino-3-methyl-4-oxo-2-phenyl-4H-1-benzopyran], for which the figures for the IC50 on α₁ receptors and on 5HT1A receptors were 39 nM and 66 nM, respectively. Taken in the same sequence, the figures for `COc1ccccc1N1CCN(CCCSc2cccc3c(=O)c(C)c(-c4ccccc4)oc23)CC1` [Example 46, 8-{3-[4-(2-methoxyphenyl)-1-piperazinyl]-propylthio}-3-methyl-4-oxo-2-phenyl-4H-1-benzopyran] were 86 nM and 23 nM. Taken in the same sequence, the figures for `COc1ccccc1N1CCN(CCCNC(=O)c2cccc3c(=O)c(-c4ccccc4)coc23)CC1` [Example 64, 8-{3-[4-(2-methoxyphenyl)-1-piperazinyl]-propylcarbamoyl}-3-phenyl-4-oxo-4H-1-benzopyran dimethanesulphonate] were 40 nM and 11 nM.

With `COc1ccccc1N1CCN(CC/C=C/c2cccc3c(=O)c(C)c(-c4ccccc4)oc23)CC1` [Example 78, (E)-8-{4-[4-(2-methoxyphenyl)-1-piperazinyl]-1-butenyl}-3-methyl-4-oxo-2-phenyl-4H-1-benzopyran], the IC50 at α₁ receptors amounted to 18 nM; at 5HT1A receptors, 116 nM. For `COc1ccccc1N1CCN(CCCNC(=O)c2cccc3c(=O)c(CO)c(-c4ccccc4)oc23)CC1` [Example 85, 8-{3-[4-(2-methoxyphenyl)-1-piperazinyl]-propylcarbamoyl}-3-hydroxymethyl-4-oxo-2-phenyl-4H-1-benzopyran. 0.4 ethanol], in that order: 16 nM and 14 nM.

Consider `COc1ccccc1N1CCN(CCCCS(=O)(=O)c2cccc3c(=O)c(C)c(-c4ccccc4)oc23)CC1` [Example 84, 8-{4-[4-(2-methoxyphenyl)-1-piperazinyl]-butylsulphonyl}-3-methyl-4-oxo-2-phenyl-4H-1-benzopyran methanesulphonate . ¼ H₂O], for which the results for the IC50 on α₁ receptors and at 5HT1A receptors were 5 nM and 2 nM, respectively.

Consider `COc1ccc(-c2oc3c(C(=O)NCCCN4CCN(c5ccccc5OC)CC4)cccc3c(=O)c2C)cc1` [Example 110, 8-{3-[4-(2-methoxyphenyl)-1-piperazinyl]-propylcarbamoyl}-2-(4-methoxyphenyl)-3-methyl-4-oxo-4H-1-benzopyran], for which the results for the 50% inhibitory concentration (IC50) on α₁ receptors and at 5HT1A receptors were 26 nM and 15 nM, respectively.
